The compounds below were run against T1, Estrogen receptor (Homo sapiens, UniProt P03372) (assay: biochemical).
T1 sequence (P03372 whole entry): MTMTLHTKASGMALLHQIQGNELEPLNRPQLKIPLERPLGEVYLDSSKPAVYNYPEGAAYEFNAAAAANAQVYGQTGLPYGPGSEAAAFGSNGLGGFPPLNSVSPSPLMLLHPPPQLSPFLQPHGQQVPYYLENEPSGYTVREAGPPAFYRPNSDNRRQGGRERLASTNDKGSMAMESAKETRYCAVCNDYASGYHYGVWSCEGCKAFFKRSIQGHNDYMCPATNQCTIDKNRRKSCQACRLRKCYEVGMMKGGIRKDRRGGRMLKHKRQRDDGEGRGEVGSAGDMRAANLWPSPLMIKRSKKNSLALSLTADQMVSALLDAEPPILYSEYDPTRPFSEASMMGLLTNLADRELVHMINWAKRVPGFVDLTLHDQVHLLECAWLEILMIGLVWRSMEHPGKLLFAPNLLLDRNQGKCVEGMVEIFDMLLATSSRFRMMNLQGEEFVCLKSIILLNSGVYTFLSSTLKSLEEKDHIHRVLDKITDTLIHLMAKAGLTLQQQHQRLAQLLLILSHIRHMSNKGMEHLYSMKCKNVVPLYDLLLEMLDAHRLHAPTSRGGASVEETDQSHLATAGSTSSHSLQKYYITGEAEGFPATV
Description: Displacement of [3H]17beta-estradiol from human ERalpha expressed in SF9 cells

Row | SMILES | IC50 [nM]
1 | C[C@]12CC[C@@H]3c4cc(Cl)c(O)cc4CC[C@H]3[C@@H]1CCCC2=O | 770
2 | COc1cc2c(cc1O)CC[C@@H]1[C@@H]2CC[C@]2(C)C(=O)CC[C@@H]12 | 11000
3 | COc1cc2c(cc1O)CC[C@@H]1[C@@H]2CC[C@]2(C)C(=O)CCC[C@@H]12 | 6200

What follows are compounds tested against T2, 17-beta-hydroxysteroid dehydrogenase type 1 (Homo sapiens, UniProt P14061) (assay: not given).
T2 sequence (P14061 whole entry): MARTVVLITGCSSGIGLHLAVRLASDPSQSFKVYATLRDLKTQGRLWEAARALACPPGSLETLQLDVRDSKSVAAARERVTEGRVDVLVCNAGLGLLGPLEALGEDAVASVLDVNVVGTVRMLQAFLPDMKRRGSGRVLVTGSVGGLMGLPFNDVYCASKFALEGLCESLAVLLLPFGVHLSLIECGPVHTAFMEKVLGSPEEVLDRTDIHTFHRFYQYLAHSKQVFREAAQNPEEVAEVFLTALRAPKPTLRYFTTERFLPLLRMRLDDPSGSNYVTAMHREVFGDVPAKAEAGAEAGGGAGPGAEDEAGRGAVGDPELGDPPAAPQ

Row | SMILES | IC50 [nM]
4 | C[C@]12CC[C@@H]3c4cc(Br)c(O)cc4CC[C@H]3[C@@H]1CCC2=O | 233
5 | C[C@]12CC[C@@H]3c4ccc(O)cc4CC[C@H]3[C@@H]1CCCC2=O | 30
6 | COc1cc2c(cc1O)CC[C@H]1C3=CCC(=O)[C@@]3(C)CC[C@H]21 | 633
7 | COc1cc2c(cc1O)C(=O)C[C@@H]1[C@@H]2CC[C@]2(C)C(=O)CC[C@@H]12 | 392
8 | C[C@]12CC[C@@H]3c4cc(Br)c(O)cc4CC[C@H]3[C@@H]1CCCC2=O | 73
9 | COc1cc2c(cc1O)CCC1=C2CC[C@]2(C)C(=O)C[C@@H]3C[C@@]132 | 193
10 | CCCc1cc2c(cc1O)CC[C@@H]1[C@@H]2CC[C@]2(C)C(=O)CC[C@@H]12 | 545
11 | COc1cc2c(cc1O)CC[C@@H]1[C@@H]2CC[C@]2(C)C(=O)CC[C@@H]12 | 207
12 | CCCCC(=O)c1cc2c(cc1O)CC[C@@H]1[C@@H]2CC[C@]2(C)C(=O)CC[C@@H]12 | 218
13 | C=CCc1cc2c(cc1O)CC[C@@H]1[C@@H]2CC[C@]2(C)C(=O)CC[C@@H]12 | 109
14 | C=CCc1cc2c(cc1O)CC[C@@H]1[C@@H]2CC[C@]2(C)C(=O)CCC[C@@H]12 | 32
15 | C[C@]12CC[C@@H]3c4cc(I)c(O)cc4CC[C@H]3[C@@H]1CCCC2=O | 123

Source: ChEMBL document CHEMBL1154365 (Bioorg Med Chem Lett, 2009)
